These are literature values, as cited in US20160250154A1, “FILM DELIVERY SYSTEM FOR ACTIVE INGREDIENTS” (MonoSol Rx, LLC, priority 2013, published 2016).

For the data set the following is noted: MSDS from PI Chemical.

The structures appear in SMILES notation.

Turning to `CCCCCCCCCCC(=O)O[C@H]1CC[C@H]2[C@@H]3CCC4=CC(=O)CC[C@]4(C)[C@H]3CC[C@]12C` [Testosterone Undecanoate], the “classification of solubility in water” value is on record as “insoluble in water”.
